Results on four molecules are retold here after patent publication US5656206A, “Substituted naphthopyrans” (Transitions Optical, Inc., priority 1995, dated 1997).

Molecules are shown by their SMILES.

The series is described as follows: Photochromic response rates on an optical bench (polymer test squares). As to conditions: for ΔOD@ SATURATION: UV exposure continued for 20 minutes, test square; for ΔOD@ SATURATION / ΔOD/MIN SENSITIVITY: 75° F. (23.9° C.); for ΔOD/MIN SENSITIVITY: measured over first five (5) seconds of UV exposure, expressed per minute, BPA 2EO DMA / poly(ethyleneglycol) 600 dimethacrylate test square; for Bleach (T1/2): time for absorbance of activated form to reach one half the highest absorbance, room temperature (75° F., 23.9° C.), after removal of activating light; for LAMBDA MAX (VISIBLE): wavelength of maximum absorption of the activated (colored) form, in a diethylene glycol bis(allyl carbonate) composition. It is filed as physicochemical. Here is the method: Testing was done with the photochromic naphthopyrans of the Examples incorporated into polymeric samples by the following method. The quantity of naphthopyran calculated to yield a 1.5 times 10^-3 molal solution was added to a flask containing 50 grams of a monomer blend of 4 parts ethoxylated bisphenol A dimethacrylate (BPA 2EO DMA), 1 part poly(ethyleneglycol) 600 dimethacrylate, and 0.033 weight percent 2,2'-azobis(2-methyl propionitrile) (AIBN). The naphthopyran was dissolved into the monomer blend by stirring and gentle heating, if necessary. After a clear solution was obtained, it was poured into a flat sheet mold having the interior dimensions of 2.2 mm×6 inches (15.24 cm)×6 inches (15.24 cm). The mold was sealed and placed in a horizontal air flow, programmable oven set to increase the temperature from 40° C. to 95° C. over a 5 hour interval, hold the temperature at 95° C. for 3 hours and then lower it to 60° C. for at least 2 hours before the end of the curing cycle. After the mold was opened, the polymer sheet was cut using a diamond blade saw into 2 inch (5.1 centimeters) test squares.
The photochromic test squares prepared in Part A were tested for photochromic response rates on an optical bench. […] The bench was fitted with a 150 watt Xenon arc lamp, a remote controlled shutter, a copper sulfate bath acting as a heat sink for the arc lamp, a Schott WG-320 nm cut-off filter which removes short wavelength radiation; neutral density filter(s) and a sample holder in which the square to be tested was inserted. A collimated beam of light from a tungsten lamp was passed through the square at a small angle normal to the square. After passing through the square, the light from the tungsten lamp was directed through a photopic filter attached to a detector. The photopic filter passes wavelengths such that the detector mimics the response of the human eye. The output signals from the detector(s) were processed by a radiometer.
Change in optical density (ΔOD) was determined by inserting a test square in the bleached state into the sample holder, adjusting the transmittance scale to 100%, opening the shutter from the Xenon lamp to provide ultraviolet radiation to change the test square from the bleached state to an activated (i.e., darkened) state, measuring the transmittance in the activated state, and calculating the change in optical density according to the formula Δ OD=log(100/%Ta) where %Ta is the percent transmittance in the activated state and the logarithm is to the base 10.
The Δ OD/Min, which represents the sensitivity of the photochromic compound's response to UV light, was measured over the first five (5) seconds of UV exposure, then expressed on a per minute basis. The saturation optical density (OD) was taken under identical conditions as the Δ OD/Min, except UV exposure was continued for 20 minutes for the examples in Table 1. The lambda max reported in Table 1 is the wavelength in the visible spectrum at which the maximum absorption of the activated (colored) form of the photochromic compound in a diethylene glycol bis(allyl carbonate) composition occurs.

For the molecule `COc1ccc(C2(c3ccc(OC)cc3)C=Cc3c(COC(C)=O)c(-c4ccccc4)c4ccccc4c3O2)cc1` [Example 3, 2,2-bis(4-methoxyphenyl)-5-acetoxymethyl-6-phenyl-2H-naphtho[1,2-b]pyran], the “ΔOD@ SATURATION” value is 0.25, the “ΔOD/MIN SENSITIVITY” value was 0.33 ΔOD/MIN, the “Bleach (T1/2)” value worked out at 1.82 min and the “LAMBDA MAX (VISIBLE)” value amounted to 508.
Taken in the same sequence, the figures for `COc1ccc(C2(c3ccc(OC)cc3)C=Cc3c(CO)c(-c4ccccc4)c4ccccc4c3O2)cc1` [Example 2, 2,2-bis(4-methoxyphenyl)-5-hydroxymethyl-6-phenyl-2H-naphtho[1,2-b]pyran] were 0.26, 0.32 ΔOD/MIN, 2.48 min and 506.
In the case of `COc1ccc(C2(c3ccc4c(c3)CCO4)C=Cc3c(C(=O)N4CCCCC4)c(C)c4ccc(OC)cc4c3O2)cc1` (centres unmarked) [Example 4, 2-(4-methoxyphenyl)-2-(2,3-dihydrobenzofuran-5-yl)-5-piperidinocarbonyl-6-methyl-9-methoxy-2H-naphtho[1,2-b]pyran], the “ΔOD@ SATURATION” value was 0.65, the “ΔOD/MIN SENSITIVITY” value was 0.34 ΔOD/MIN, the “Bleach (T1/2)” value was > 13.3 min and the “LAMBDA MAX (VISIBLE)” value worked out at 535. The “bleach rate, i.e., fade rate (in words)” value (conclusion from Table 1) is “fades much slower”.
Turning to `COc1ccc(C2(c3ccc(OC)cc3)C=Cc3c(CO)c(C)c4ccc(OC)cc4c3O2)cc1` [Example 1, 2,2-bis(4-methoxyphenyl)-5-hydroxymethyl-6-methyl-9-methoxy-2H-naphtho[1,2-b]pyran], the “ΔOD@ SATURATION” value turned out to be 0.42, the “ΔOD/MIN SENSITIVITY” value was 0.38 ΔOD/MIN, the “Bleach (T1/2)” value amounted to 5.05 min and the “LAMBDA MAX (VISIBLE)” value turned out to be 520.
